Experimental data as given in patent publication US12435060B2, “Acylamino bridged heterocyclic compound, and composition and application thereof” (BEIJING SCITECH-MQ PHARMACEUTICALS LIMITED, priority 2019, dated 2025).

System: HT29 cells
Experiment: Inhibition of cell necrosis (CCK8 method), induced programmed necrosis of HT29 cells
Format: cell-based
Conditions: Homo sapiens, HT-29; rescue from necrosis induced by TNF-α 20 ng/mL, AT-406 1 μM, Z-VAD-FMK 20 μM; 16-20 hours; CCK-8, OD 450 nm
Outline: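 Rescue from programmed necrosis was scored by CCK-8 absorbance at 450 nm after 16-20 h of TNF-α (20 ng/mL), AT-406 (1 μM) and Z-VAD-FMK (20 μM) at 37 °C, 5% CO2. HT29 cells had received compound 30 min earlier across nine 4-fold dilutions (top 25000 nM final). IC50 came from % inhibition relative to uninduced and induced-only wells.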

## Cc1ccc(OCCOC(C)(C)C)cc1-c1ccnc(NC(=O)c2nnc(CC3CCCC3)o2)c1 [Example 76]
  IC50: > 10000 nM

## COCCCCOc1ccc(C)c(-c2ccnc(NC(=O)c3nnc(Cc4ccccc4)[nH]3)c2)c1 [Example 152, 5-benzyl-N-(4-(5-(4-methoxybutoxy)-2-methylphenyl)pyridin-2-yl)-4H-1,2,4-triazole-3-carboxamide]
  IC50: ≤ 100 nM

## CC(C)Oc1ccc(Cl)c(-c2cncc(NC(=O)c3nnc(Cc4ccccc4)[nH]3)c2)c1 [Example 110, 5-benzyl-N-(5-(2-chloro-5-isopropoxyphenyl)pyridin-3-yl)-4H-1,2,4-triazole-3-carboxamide]
  IC50: > 10000 nM

## Cc1cnc(NC(=O)c2nnc(Cc3ccccc3F)[nH]2)cc1-c1cc(OCCCC(C)(C)O)ccc1F [Example 322, N-(4-(2-fluoro-5-((4-hydroxy-4-methylpentyl)oxy)phenyl)-5-methylpyridin-2-yl)-5-(2-fluorobenzyl)-4H-1,2,4-triazole-3-carboxamide]
  IC50: 100 to 1000 nM

## CCC(O)(CC)CCCOc1ccc(C(F)(F)F)c(-c2ccnc(NC(=O)c3nnc(Cc4ccccc4)[nH]3)c2)c1 [Example 260, 5-benzyl-N-(4-(5-((4-ethyl-4-hydroxyhexyl)oxy)-2-(trifluoromethyl)phenyl)pyridin-2-yl)-4H-1,2,4-triazole-3-carboxamide]
  IC50: ≤ 100 nM

## CC(C)(O)CCCOc1ccc(C(F)(F)F)c(-c2ccnc(NC(=O)c3nnc(Cc4cccc(F)c4)[nH]3)c2)c1 [Example 256, 5-(3-fluorobenzyl)-N-(4-(5-((4-hydroxy-4-methylpentyl)oxy)-2-(trifluoromethyl)phenyl)pyridin-2-yl)-4H-1,2,4-triazole-3-carboxamide]
  IC50: ≤ 100 nM

## Cc1ccc(OCCCC(C)(C)O)cc1-c1ccnc(NC(=O)c2nnc(Cc3ccc(F)c(Cl)c3)[nH]2)c1 [Example 206, 5-(3-chloro-4-fluorobenzyl)-N-(4-(5-((4-hydroxy-4-methylpentyl)oxy)-2-methylphenyl)pyridin-2-yl)-4H-1,2,4-triazole-3-carboxamide]
  IC50: 100 to 1000 nM

## O=C(Nc1cc(-c2cc(OCC3CCOCC3)ccc2Cl)ccn1)c1nnc(CC2CCCCC2)[nH]1 [Example 402, N-(4-(2-chloro-5-((tetrahydro-2H-pyran-4-yl)methoxy)phenyl)pyridin-2-yl)-5-(cyclohexylmethyl)-4H-1,2,4-triazole-3-carboxamide]
  IC50: ≤ 100 nM

## O=C(Nc1cc(-c2cc(OCCCCCO)ccc2Cl)ccn1)c1nnc(CC2CCCCC2)[nH]1 [Example 378, N-(4-(2-chloro-5-((5-hydroxypentyl)oxy)phenyl)pyridin-2-yl)-5-(cyclohexylmethyl)-4H-1,2,4-triazole-3-carboxamide]
  IC50: ≤ 100 nM

## Cc1ccc(OCCCC(C)(C)O)cc1-c1ccnc(NC(=O)c2nnc(CC3CCCCCC3)[nH]2)c1 [Example 222, 5-(cycloheptylmethyl)-N-(4-(5-((4-hydroxy-4-methylpentyl)oxy)-2-methylphenyl)pyridin-2-yl)-4H-1,2,4-triazole-3-carboxamide]
  IC50: ≤ 100 nM

## O=C(Nc1cc(-c2cc(OCCC3CCOCC3)ccc2C(F)(F)F)ccn1)c1nnc(Cc2ccc(F)cc2)[nH]1 [Example 308, 5-(4-fluorobenzyl)-N-(4-(5-(2-(tetrahydro-2H-pyran-4-yl)ethoxy)-2-(trifluoromethyl)phenyl)pyridin-2-yl)-4H-1,2,4-triazole-3-carboxamide]
  IC50: ≤ 100 nM

## CCC(O)(CC)CCCOc1ccc(Cl)c(-c2ccnc(NC(=O)c3nnc(Cc4ccccc4)[nH]3)c2)c1 [Example 359, 5-benzyl-N-(4-(2-chloro-5-((4-ethyl-4-hydroxyhexyl)oxy)phenyl)pyridin-2-yl)-4H-1,2,4-triazole-3-carboxamide]
  IC50: ≤ 100 nM

## CC(C)(O)CCCCOc1ccc(Cl)c(-c2ccnc(NC(=O)c3nnc(CC4CCCC4)[nH]3)c2)c1 [Example 369, N-(4-(2-chloro-5-((5-hydroxyl-5-methylhexyl)oxy)phenyl)pyridin-2-yl)-5-(cyclopentylmethyl)-4H-1,2,4-triazole-3-carboxamide]
  IC50: ≤ 100 nM

## COc1ccccc1-c1ccnc(NC(=O)c2nnc(Cc3ccccc3)[nH]2)c1 [Example 3, 5-benzyl-N-(4-(2-methoxyphenyl)pyridin-2-yl)-4H-1,2,4-triazole-3-carboxamide]
  IC50: 1000 to 10000 nM

## Cc1ccc(OCCOC(C)C)cc1-c1ccnc(NC(=O)c2nnc(Cc3ccccc3)[nH]2)c1 [Example 133, 5-benzyl-N-(4-(5-(2-isopropoxyethoxy)-2-methylphenyl)pyridin-2-yl)-4H-1,2,4-triazole-3-carboxamide]
  IC50: ≤ 100 nM

## CC(C)(O)CCCOc1ccc(F)c(-c2cc(NC(=O)c3nnc(Cc4ccccc4F)[nH]3)ncc2Cl)c1 [Example 320, N-(5-chloro-4-(2-fluoro-5-((4-hydroxy-4-methylpentyl)oxy)phenyl)pyridin-2-yl)-5-(2-fluorobenzyl)-4H-1,2,4-triazole-3-carboxamide]
  IC50: 100 to 1000 nM

## O=C(Nc1cc(-c2cc(OCCC3CCOCC3)ccc2C(F)(F)F)ccn1)c1nnc(Cc2ccccc2F)[nH]1 [Example 306, 5-(2-fluorobenzyl)-N-(4-(5-(2-(tetrahydro-2H-pyran-4-yl)ethoxy)-2-(trifluoromethyl)phenyl)pyridin-2-yl)-4H-1,2,4-triazole-3-carboxamide]
  IC50: ≤ 100 nM

## Cc1ccc(OCCCC(F)(F)F)cc1-c1ccnc(NC(=O)c2nnc(Cc3ccccc3)[nH]2)c1 [Example 138, 5-benzyl-N-(4-(2-methyl-5-(4,4,4-trifluorobutoxy)phenyl)pyridin-2-yl)-4H-1,2,4-triazole-3-carboxamide]
  IC50: ≤ 100 nM

## CC(C)(O)CCCOc1ccc(C(F)(F)F)c(-c2ccnc(NC(=O)c3nnc(Cc4ccc(F)cc4)[nH]3)c2)c1 [Example 257, 5-(4-fluorobenzyl)-N-(4-(5-((4-hydroxy-4-methylpentyl)oxy)-2-(trifluoromethyl)phenyl)pyridin-2-yl)-4H-1,2,4-triazole-3-carboxamide]
  IC50: ≤ 100 nM

## COCCOCCOc1ccc(C)c(-c2ccnc(NC(=O)c3nnc(Cc4ccccc4)[nH]3)c2)c1 [Example 85, 5-benzyl-N-(4-(5-(2-(2-methoxyethoxy)ethoxy)-2-methylphenyl)pyridin-2-yl)-4H-1,2,4-triazole-3-carboxamide]
  IC50: ≤ 100 nM

## Cc1ccc(OCC2CCOCC2)cc1-c1ccnc(NC(=O)c2nnc(Cc3ccccc3)[nH]2)c1 [Example 67, 5-benzyl-N-(4-(2-methyl-5-((tetrahydro-2H-pyran-4-yl)methoxy)phenyl)pyridin-2-yl)-4H-1,2,4-triazole-3-carboxamide]
  IC50: ≤ 100 nM

## COCCOc1ccccc1-c1ccnc(NC(=O)c2nnc(Cc3ccccc3)[nH]2)c1 [Example 126, 5-benzyl-N-(4-(2-(2-methoxyethoxy)phenyl)pyridin-2-yl)-4H-1,2,4-triazole-3-carboxamide]
  IC50: 1000 to 10000 nM

## Cc1cc(C#N)ccc1-c1ccnc(NC(=O)c2nnc(Cc3ccccc3)[nH]2)c1 [Example 12, 5-benzyl-N-(4-(4-cyano-2-methylphenyl)pyridin-2-yl)-4H-1,2,4-triazole-3-carboxamide]
  IC50: 100 to 1000 nM

## CCOCCOc1ccc(Cl)c(-c2ccnc(NC(=O)c3nnc(CC4CCCC4)[nH]3)c2)c1 [Example 385, N-(4-(2-chloro-5-(2-ethoxyethoxy)phenyl)pyridin-2-yl)-5-(cyclopentylmethyl)-4H-1,2,4-triazole-3-carboxamide]
  IC50: ≤ 100 nM

## Cc1ccc(CCC(C)(C)O)cc1-c1ccnc(NC(=O)c2nnc(Cc3ccccc3)[nH]2)c1 [Example 482, 5-benzyl-N-(4-(5-(3-hydroxyl-3-methylbutyl)-2-methylphenyl)pyridin-2-yl)-4H-1,2,4-triazole-3-carboxamide]
  IC50: ≤ 100 nM

## Cc1ccc(OCCN(C)C)cc1-c1ccnc(NC(=O)c2nnc(Cc3ccccc3)[nH]2)c1 [Example 134, 5-benzyl-N-(4-(5-(2-(dimethylamino)ethoxy)-2-methylphenyl)pyridin-2-yl)-4H-1,2,4-triazole-3-carboxamide]
  IC50: 100 to 1000 nM

## CCC(O)(CC)CCCOc1ccc(C(F)(F)F)c(-c2ccnc(NC(=O)c3nnc(Cc4ccccc4F)[nH]3)c2)c1 [Example 261, 5-(2-fluorobenzyl)-N-(4-(5-((4-ethyl-4-hydroxyhexyl)oxy)-2-(trifluoromethyl)phenyl)pyridin-2-yl)-4H-1,2,4-triazole-3-carboxamide]
  IC50: ≤ 100 nM

## CC(C)(C)OCCOc1ccc(C#N)c(-c2ccnc(NC(=O)c3nnc(Cc4ccccc4)[nH]3)c2)c1 [Example 74]
  IC50: 100 to 1000 nM

## CC(C)OCCOc1ccc(Cl)c(-c2ccnc(NC(=O)c3nnc(CC4CCCC4)[nH]3)c2)c1 [Example 389, N-(4-(2-chloro-5-(2-isopropoxyethoxy)phenyl)pyridin-2-yl)-5-(cyclopentylmethyl)-4H-1,2,4-triazole-3-carboxamide]
  IC50: ≤ 100 nM

## Cc1ccc(OC2CC2)cc1-c1ccnc(NC(=O)c2nnc(Cc3ccccc3)[nH]2)c1 [Example 155, 5-benzyl-N-(4-(5-cyclopropoxy-2-methylphenyl)pyridin-2-yl)-4H-1,2,4-triazole-3-carboxamide]
  IC50: 100 to 1000 nM

## CCOCCOc1ccc(Cl)c(-c2ccnc(NC(=O)c3nnc(Cc4ccccc4)[nH]3)c2)c1 [Example 383, 5-benzyl-N-(4-(2-chloro-5-(2-ethoxyethoxy)phenyl)pyridin-2-yl)-4H-1,2,4-triazole-3-carboxamide]
  IC50: ≤ 100 nM

## Cc1ccc(C(F)(F)F)cc1-c1ccnc(NC(=O)c2nnc(Cc3ccccc3)[nH]2)c1 [Example 36, 5-benzyl-N-(4-(2-methyl-5-(trifluoromethyl)phenyl)pyridin-2-yl)-4H-1,2,4-triazole-3-carboxamide]
  IC50: 100 to 1000 nM

## CC(C)(O)COc1ccc(C(F)(F)F)c(-c2ccnc(NC(=O)c3nnc(CC4CCCC4)[nH]3)c2)c1 [Example 266, 5-(cyclopentylmethyl)-N-(4-(5-(2-hydroxyl-2-methylpropoxy)-2-(trifluoromethyl)phenyl)pyridin-2-yl)-4H-1,2,4-triazole-3-carboxamide]
  IC50: ≤ 100 nM
